The source of these data is patent US10807956B2, “Histone demethylase inhibitors” (CELGENE QUANTICEL RESEARCH, INC., priority 2012, dated 2020).

Sequence of JMJD2C (Q9H3R0 2-372): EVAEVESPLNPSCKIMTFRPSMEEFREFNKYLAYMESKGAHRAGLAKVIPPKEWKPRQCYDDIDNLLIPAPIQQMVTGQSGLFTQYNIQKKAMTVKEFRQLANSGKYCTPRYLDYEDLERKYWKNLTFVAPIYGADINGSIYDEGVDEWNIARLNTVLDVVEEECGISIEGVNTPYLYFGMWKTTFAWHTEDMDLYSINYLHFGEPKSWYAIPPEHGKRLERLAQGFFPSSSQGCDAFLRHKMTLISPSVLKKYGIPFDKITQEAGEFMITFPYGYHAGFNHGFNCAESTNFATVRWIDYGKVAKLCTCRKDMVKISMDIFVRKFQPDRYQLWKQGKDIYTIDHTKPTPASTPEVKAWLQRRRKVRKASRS

This experiment addresses JMJD2C (Homo sapiens (Human), UniProt Q9H3R0). The experiment can be described thus: JMJD2C TR-FRET enzyme inhibition assay. To be noted: H3K9me3-biotin peptide. In kind it is biochemical.
Description: This assay determines the ability of a test compound to inhibit Jarid1A, Jarid1B, and JMJD2C demethylase activity. Baculovirus expressed Jarid1A (GenBank Accession # NM_001042603, AA1-1090) was purchased from BPS Bioscience (Cat #50110). Baculovirus expressed Jarid1B (GenBank Accession # NM_006618, AA 2-751) was purchased from BPS Bioscience (Cat #50121) or custom made by MolecularThroughput. Baculovirus-expressed JMJD2C (GenBank Accession # BC143571, AA 2-372) was purchased from BPS Bioscience (Cat #50105).
The ability of test compounds to inhibit the activity of JMJD2C was determined in 384-well plate format under the following reaction conditions: 0.3 nM JMJD2C, 300 nM H3K9me3-biotin labeled peptide (Anaspec cat #64360), 2 μM alpha-ketoglutaric acid in assay buffer of 50 mM HEPES, pH7.3, 0.005% Brij35, 0.5 mM TCEP, 0.2 mg/ml BSA, 50 μM sodium L-ascorbate, and 2 μM ammonium iron(II) sulfate. Reaction product was determined quantitatively by TR-FRET after the addition of detection reagent Phycolink Streptavidin-allophycocyanin (Prozyme) and Europium-anti-di-methylated histone H3 lysine 9 (H3K9me2) antibody (PerkinElmer) in the presence of 5 mM EDTA in LANCE detection buffer (PerkinElmer) at a final concentration of 50 nM and 1 nM, respectively.
The assay reaction was initiated by the following: 2 μl of the mixture of 900 nM H3K9me3-biotin labeled peptide and 6 μM alpha-ketoglutaric acid with 2 μl of 11-point serial diluted inhibitor in 3% DMSO were added to each well of the plate, followed by the addition of 2 μl of 0.9 nM JMJD2C to initiate the reaction. The reaction mixture was incubated at room temperature for 30 min, and terminated by the addition of 6 μl of 5 mM EDTA in LANCE detection buffer containing 100 nM Phycolink Streptavidin-allophycocyanin and 2 nM Europium-anti-H3K9me2 antibody. Plates were read by EnVisionMultilabel Reader in TR-FRET mode (excitation at 320 nm, emission at 615 nm and 665 nm) after 1 hr incubation at rt. A ratio was calculated (665/615) for each well and fitted to determine inhibition constant (IC50).
Consider “3-{[(6-chloro-1,2,3,4-tetrahydronaphthalen-1-yl)methyl]- amino}pyridine-4-carboxylic acid [Example 68]”, for which the IC50 is 100 to 1000 nM.

The substance “3-{[(6-chloro-1-hydroxy-1,2,3,4-tetrahydronaphthalen-1- yl)methyl]amino}pyridine-4-carboxylic acid [Example 67]” showed an IC50 of 100 to 1000 nM.

“3-{[(7-fluoro-3,4-dihydro-2H-chromen-4-yl)methyl]- amino}pyridine-4-carboxylic acid [Example 65]” displayed an IC50 of under 100 nM.
